According to patent US9150543B2, “Substituted indolyl alkyl amino derivatives as inhibitors of histone deacetylase” (Janssen Pharmaceutica N. V., priority 2004, dated 2015):
Values after ≈ are worked out from the molar mass of the structure shown.

What was measured:
[1] = target: histone deacetylase (HeLa nuclear extracts); test: In vitro assay for inhibition of histone deacetylase with fluorescent-labelled substrate (C.1.b); format: biochemical; conditions: Fluor de Lys substrate
Description: The HDAC Fluorescent Activity Assay/Drug Discovery Kit of Biomol (cat.No: AK-500-0001) was used. The HDAC Fluorescent Activity Assay is based on the Fluor de Lys (Fluorogenic Histone deAcetylase Lysyl) substrate and developer combination. The Fluor de Lys substrate, comprises an acetylated lysine side chain. Deacetylation of the substrate sensitizes the substrate so that, in the second step, treatment with the Fluor de Lys developer produces a fluorophore.
After 30 min, 1 volume of the developer was added. […] For each experiment, controls (containing HeLa nuclear extract and buffer), a blank incubation (containing buffer but no HeLa nuclear extract) and samples (containing compound dissolved in DMSO and further diluted in buffer and HeLa nuclear extract) were run in parallel. In first instance, compounds were tested at a concentration of 10^−5M. […] All sample were tested 4 times. In each test the blank value was subtracted from both the control and the sample values. The control sample represented 100% of substrate deactylation. For each sample the fluorescence was expressed as a percentage of the mean value of the controls. […] Herein the effects of test compounds are expressed as pIC50 (the negative log value of the IC50-value) (see Table F-3).

[2] = test system: A2780 ovarian carcinoma cells; test: Antiproliferative activity on A2780 cells, MTT (C.2); format: cell-based; conditions: Homo sapiens, 96 h, four days of incubation, read-out: Cellular activity pIC50 C.2 (converted)
Description: All compounds tested were dissolved in DMSO and further dilutions were made in culture medium. Final DMSO concentrations never exceeded 0.1% (v/v) in cell proliferation assays. Controls contained A2780 cells and DMSO without compound and blanks contained DMSO but no cells. MTT was dissolved at 5 mg/ml in PBS. A glycine buffer comprised of 0.1 M glycine and 0.1 M NaCl buffered to pH 10.5 with NaOH (1N) was prepared (all reagents were from Merck).
The human A2780 ovarian carcinoma cells (a kind gift from Dr. T. C. Hamilton [Fox Chase Cancer Centre, Pennsylvania, USA]) were cultured in RPMI 1640 medium supplemented with 2 mM L-glutamine, 50 μg/ml gentamicin and 10% fetal calf serum. Cells were routinely kept as monolayer cultures at 37° C. in a humidified 5% CO2 atmosphere. Cells were passaged once a week using a trypsin/EDTA solution at a split ratio of 1:40. All media and supplements were obtained from Life Technologies. Cells were free of mycoplasma contamination as determined using the Gen-Probe Mycoplasma Tissue Culture kit (supplier: BioMerieux).
Cells were seeded in NUNC™ 96-well culture plates (Supplier: Life Technologies) and allowed to adhere to the plastic overnight. Densities used for plating were 1500 cells per well in a total volume of 200 μl medium. After cell adhesion to the plates, medium was changed and drugs and/or solvents were added to a final volume of 200 μl. Following four days of incubation, medium was replaced by 200 μl fresh medium and cell density and viability was assessed using an MTT-based assay. To each well, 25 μl MTT solution was added and the cells were further incubated for 2 hours at 37° C. The medium was then carefully aspirated and the blue MTT-formazan product was solubilized by addition of 25 μl glycine buffer followed by 100 μl of DMSO. […] Within an experiment, the results for each experimental condition are the mean of 3 replicate wells. For initial screening purposes, compounds were tested at a single fixed concentration of 10^−6 M. For active compounds, the experiments were repeated to establish full concentration-response curves. For each experiment, controls (containing no drug) and a blank incubation (containing no cells or drugs) were run in parallel. The blank value was subtracted from all control and sample values. For each sample, the mean value for cell growth (in absorbance units) was expressed as a percentage of the mean value for cell growth of the control. […] Herein the effects of test compounds are expressed as pIC50 (the negative log value of the IC50-value)(see Table F-3).

[3] = Solubility/stability at different pH's, chemiluminescent nitrogen detector (C.3.b); format: physicochemical; conditions: aqueous buffer; pH = 2.3
Source text: In a second method the solubility of a compound at different pH's can be measured with the use of a Chemiluminescent Nitrogen Detector (see example C.3.b).
The solubility of a compound, at different pH's, can also be measured with the use of a chemiluminescent nitrogen detector. (see Table F-3).

Row | SMILES | Enzymatic activity pIC50 C.1.b [1] | IC50 [2] | solubility [3]
1 | Cc1[nH]c2ccccc2c1CCNC1CCN(c2ncc(C(=O)NO)cn2)CC1 [Compound 29] | 7.9 | 126 nM | 
2 | O=C(NO)c1cnc(N2CCC(CNCc3cn(Cc4ccccc4)c4ccccc34)CC2)nc1 [Compound 54] | 10.2 | 12.6 nM | 
3 | Cc1cccc2c(CNCC3CCN(c4ncc(C(=O)NO)cn4)CC3)cn(C)c12 [Compound 37] | 8.6 | 31.6 nM | 
4 | CCCn1cc(CNCC2CCN(c3ncc(C(=O)NO)cn3)CC2)c2cc(F)ccc21 [Compound 52] | 10.3 | 7.94 nM | 
5 | O=C(NO)c1cnc(N2CCC(CNCc3c[nH]c4ccccc34)CC2)nc1 [Compound 8] | 8.3 | 79.4 nM | 2400 µg/mL (≈ 6.31 mM)
6 | CN(Cc1cn(C)c2ccccc12)CC1CCN(c2ncc(C(=O)NO)cn2)CC1 [Compound 67] | 8.3 | 31.6 nM | 1900 µg/mL (≈ 4.65 mM)
7 | Cn1ccc2c(CNCC3CCN(c4ncc(C(=O)NO)cn4)CC3)cccc21 [Compound 49] | 8.7 | 31.6 nM | 3300 µg/mL (≈ 8.37 mM)
8 | O=C(NO)c1cnc(N2CCC(CNCc3cc4ccccc4o3)CC2)nc1 [Compound 10] | 8.1 | 31.6 nM | 3700 µg/mL (≈ 9.7 mM)
9 | O=C(NO)c1cnc(N2CCC(CNCc3cc4ccccc4s3)CC2)nc1 [Compound 9] | 8.3 | 79.4 nM | 
10 | O=C(NO)c1cnc(N2CCC(CNCCc3c[nH]c4ccc(Cl)cc34)CC2)nc1 [Compound 17] | 7.8 | 158 nM | 
11 | CCC(=O)N(CCc1cn(C)c2cc(OC)ccc12)CC1CCN(c2ncc(C(=O)NO)cn2)CC1 [Compound 71] | 7.5 | 316 nM | 
12 | CCN(CCc1cn(C)c2ccc(Cl)cc12)CC1CCN(c2ncc(C(=O)NO)cn2)CC1 [Compound 65] | >9.0 | 31.6 nM | 1600 µg/mL (≈ 3.4 mM)
13 | CCCn1cc(CNCC2CCN(c3ncc(C(=O)NO)cn3)CC2)c2ccc(Cl)cc21 [Compound 41] | 8.4 | 1580 nM | 
14 | CCC(=O)N(CCc1cn(C)c2ccc(Cl)cc12)CC1CCN(c2ncc(C(=O)NO)cn2)CC1 [Compound 69] | 7.6 | 200 nM | 
15 | CCCn1cc(CNCC2CCN(c3ncc(C(=O)NO)cn3)CC2)c2ccccc21 [Compound 62] | 9.5 | 10 nM | 
16 | O=C(NO)c1cnc(N2CCC(CNCc3cccc4[nH]ccc34)CC2)nc1 [Compound 64] | 8.9 | 15.8 nM | 
17 | Cn1cc(CNCC2CCN(c3ncc(C(=O)NO)cn3)CC2)c2ccc(F)cc21 [Compound 81] | 8.9 | 31.6 nM | 
18 | Cc1[nH]c2ccccc2c1CCNCC1CCN(c2ncc(C(=O)NO)cn2)CC1 [Compound 76] | 7.8 | 200 nM | 
19 | CC(=O)N(Cc1cn(C)c2ccccc12)CC1CCN(c2ncc(C(=O)NO)cn2)CC1 [Compound 72] | 7.9 | 158 nM | 
20 | Cc1cccc2c1c(CNCC1CCN(c3ncc(C(=O)NO)cn3)CC1)cn2C [Compound 38] | >9.0 | 31.6 nM | 
21 | Cc1ccc2c(c1)c(CNCC1CCN(c3ncc(C(=O)NO)cn3)CC1)c(C)n2C [Compound 42] | 8.3 | 31.6 nM | 
22 | Cc1ccc2[nH]cc(CNCC3CCN(c4ncc(C(=O)NO)cn4)CC3)c2c1 [Compound 12] | 8.2 | 79.4 nM | 
23 | Cn1cc(CNCC2CCN(c3ncc(C(=O)NO)cn3)CC2)c2cc([N+](=O)[O-])ccc21 [Compound 18] | 8.3 | 10 nM | 

Row | SMILES | Enzymatic activity pIC50 C.1.b [1] | IC50 [2] | solubility [3]
24 | Cn1cc(CNCC2CCN(c3ncc(C(=O)NO)cn3)CC2)c2cc(F)ccc21 [Compound 51] | 9.8 | 10 nM | 
25 | CCN(CCc1cn(C)c2cc(OC)ccc12)CC1CCN(c2ncc(C(=O)NO)cn2)CC1 [Compound 73] | 7.9 | 79.4 nM | 
26 | CCCn1cc(CCNCC2CCN(c3ncc(C(=O)NO)cn3)CC2)c2ccc(OC)cc21 [Compound 75] | 7.3 | 79.4 nM | 
27 | O=C(NO)c1cnc(N2CCC(CNCc3cn(C4CCCC4)c4ccccc34)CC2)nc1 [Compound 46] | 9.0 | 10 nM | 
28 | CCC(CC)n1cc(CNCC2CCN(c3ncc(C(=O)NO)cn3)CC2)c2ccccc21 [Compound 40] | 8.5 | 31.6 nM | 
29 | O=C(NO)c1cnc(N2CCC(CNCc3cccc4cc[nH]c34)CC2)nc1 [Compound 63] | >9.0 | 31.6 nM | 
30 | O=C(NO)c1cnc(N2CCC(CNCc3c[nH]c4ccc(Br)cc34)CC2)nc1 [Compound 15] | 8.5 | 31.6 nM | 
31 | CCCn1cc(CCNCC2CCN(c3ncc(C(=O)NO)cn3)CC2)c2ccccc21 [Compound 31] | 8.2 | 39.8 nM | 
32 | Cn1cc(CNCC2CCN(c3ncc(C(=O)NO)cn3)CC2)c2ccccc21 [Compound 1a] |  | 6.31 nM | 1400 µg/mL (≈ 3.55 mM)
33 | Cn1cc(CNCC2CCN(c3ncc(C(=O)NO)cn3)CC2)c2c(Cl)cccc21 [Compound 58] | 10.0 | 1580 nM | 
34 | CC(C)n1cc(CNCC2CCN(c3ncc(C(=O)NO)cn3)CC2)c2ccccc21 [Compound 53] | 10.0 | 10 nM | 
35 | Cn1cc(CNCC2CCN(c3ccc(C(=O)NO)cn3)CC2)c2ccccc21 [Compound 80] | 7.8 | 79.4 nM | 
36 | O=C(NO)c1cnc(N2CCC(CNCc3c[nH]c4ccc(F)cc34)CC2)nc1 [Compound 13] | 6.0 | 31.6 nM | 
37 | CCn1cc(CNCC2CCN(c3ncc(C(=O)NO)cn3)CC2)c2ccc(OC)cc21 [Compound 61] | 8.9 | 25.1 nM | 
38 | Cn1cc(CNCC2CCN(c3ncc(C(=O)NO)cn3)CC2)c2cc3c(cc21)OCO3 [Compound 59] | 9.0 | 20 nM | 
39 | CCn1cc(CNCC2CCN(c3ncc(C(=O)NO)cn3)CC2)c2ccccc21 [Compound 34] | 8.4 | 31.6 nM | 
40 | Cc1[nH]c2ccccc2c1CNCC1CCN(c2ncc(C(=O)NO)cn2)CC1 [Compound 35] | 8.2 | 200 nM | 
41 | COc1ccc2c(c1)c(CCNCC1CCN(c3ncc(C(=O)NO)cn3)CC1)cn2C [Compound 74] | 8.2 | 79.4 nM | 
42 | COc1ccc2[nH]cc(CNCC3CCN(c4ncc(C(=O)NO)cn4)CC3)c2c1 [Compound 16] | 8.6 | 79.4 nM | 
43 | CCC(=O)N(CCc1cn(C)c2ccccc12)CC1CCN(c2ncc(C(=O)NO)cn2)CC1 [Compound 70] | 8.5 | 158 nM | 
44 | Cn1cc(CNCC2CCN(c3ncc(C(=O)NO)cn3)CC2)c2ccc(Cl)cc21 [Compound 56] | 9.2 | 25.1 nM | 
45 | O=C(NO)c1cnc(N2CCC(CNCc3cn(CC4CC4)c4ccccc34)CC2)nc1 [Compound 48] | >9.0 | 6.31 nM | 
